Results on one compound are retold here after paper PMC4211880, “α-Mangostin Disrupts the Development of Streptococcus mutans Biofilms and Facilitates Its Mechanical Removal” (PLoS ONE, 2014).

As a reminder, the inhibition is the drop in the measured response relative to a control, in per cent. Low values mean little suppression, high ones strong suppression.

SMILES strings stand for the structures.

The target in one test is T1, GtfB (Streptococcus mutans, UniProt P08987).
T1 construct: secreted enzyme from culture supernatant of S. milleri KSB8 carrying gtfB of S. mutans GS-5; purified to near homogeneity by hydroxyapatite chromatography
In words: incorporation of […]-glucose from labelled sucrose into glucans, scintillation counting. The format is biochemical.

In another test the target is T2, GtfC (Streptococcus mutans, UniProt P13470).
T2 construct: secreted enzyme from culture supernatant of S. mutans WHB 410 (expresses gtfC only); purified to near homogeneity by hydroxyapatite chromatography
The test is described as above. It is filed as biochemical.

T1 sequence (P08987 35-1476): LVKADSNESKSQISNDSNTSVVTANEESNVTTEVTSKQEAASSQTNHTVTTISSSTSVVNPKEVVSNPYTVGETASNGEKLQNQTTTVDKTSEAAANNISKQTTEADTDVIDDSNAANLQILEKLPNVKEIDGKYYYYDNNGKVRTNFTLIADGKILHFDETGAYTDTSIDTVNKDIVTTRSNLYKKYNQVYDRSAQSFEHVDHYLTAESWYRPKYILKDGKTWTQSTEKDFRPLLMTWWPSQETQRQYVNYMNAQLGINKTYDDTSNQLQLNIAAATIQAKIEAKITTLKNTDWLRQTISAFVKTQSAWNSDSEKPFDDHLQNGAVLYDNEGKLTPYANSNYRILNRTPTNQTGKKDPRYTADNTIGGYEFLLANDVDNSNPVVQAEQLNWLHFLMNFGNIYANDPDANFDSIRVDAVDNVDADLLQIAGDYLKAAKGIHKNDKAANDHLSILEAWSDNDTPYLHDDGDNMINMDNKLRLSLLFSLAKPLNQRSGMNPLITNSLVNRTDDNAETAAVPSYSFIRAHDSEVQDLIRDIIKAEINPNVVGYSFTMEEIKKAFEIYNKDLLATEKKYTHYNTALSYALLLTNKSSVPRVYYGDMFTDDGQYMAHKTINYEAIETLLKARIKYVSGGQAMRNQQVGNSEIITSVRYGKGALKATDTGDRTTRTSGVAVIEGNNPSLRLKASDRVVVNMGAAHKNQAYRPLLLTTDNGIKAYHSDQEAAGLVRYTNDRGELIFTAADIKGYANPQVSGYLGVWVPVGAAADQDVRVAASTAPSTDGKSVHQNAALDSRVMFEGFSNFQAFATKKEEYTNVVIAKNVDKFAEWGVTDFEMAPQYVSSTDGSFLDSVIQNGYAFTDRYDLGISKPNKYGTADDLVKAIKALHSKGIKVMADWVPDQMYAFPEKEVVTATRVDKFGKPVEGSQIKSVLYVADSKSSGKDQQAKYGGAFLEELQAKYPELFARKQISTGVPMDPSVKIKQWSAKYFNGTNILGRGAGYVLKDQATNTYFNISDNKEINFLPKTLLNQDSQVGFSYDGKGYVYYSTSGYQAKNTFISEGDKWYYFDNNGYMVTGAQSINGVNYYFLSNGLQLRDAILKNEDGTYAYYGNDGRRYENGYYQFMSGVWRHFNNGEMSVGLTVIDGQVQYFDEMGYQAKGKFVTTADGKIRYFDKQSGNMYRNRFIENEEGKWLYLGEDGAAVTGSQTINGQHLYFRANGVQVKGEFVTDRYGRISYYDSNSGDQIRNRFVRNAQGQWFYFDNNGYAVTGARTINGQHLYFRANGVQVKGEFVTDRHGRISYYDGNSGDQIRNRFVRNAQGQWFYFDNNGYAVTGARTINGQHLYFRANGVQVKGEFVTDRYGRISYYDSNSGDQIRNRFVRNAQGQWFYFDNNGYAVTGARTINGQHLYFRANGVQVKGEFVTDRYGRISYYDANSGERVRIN
T2 sequence (P13470 35-1455): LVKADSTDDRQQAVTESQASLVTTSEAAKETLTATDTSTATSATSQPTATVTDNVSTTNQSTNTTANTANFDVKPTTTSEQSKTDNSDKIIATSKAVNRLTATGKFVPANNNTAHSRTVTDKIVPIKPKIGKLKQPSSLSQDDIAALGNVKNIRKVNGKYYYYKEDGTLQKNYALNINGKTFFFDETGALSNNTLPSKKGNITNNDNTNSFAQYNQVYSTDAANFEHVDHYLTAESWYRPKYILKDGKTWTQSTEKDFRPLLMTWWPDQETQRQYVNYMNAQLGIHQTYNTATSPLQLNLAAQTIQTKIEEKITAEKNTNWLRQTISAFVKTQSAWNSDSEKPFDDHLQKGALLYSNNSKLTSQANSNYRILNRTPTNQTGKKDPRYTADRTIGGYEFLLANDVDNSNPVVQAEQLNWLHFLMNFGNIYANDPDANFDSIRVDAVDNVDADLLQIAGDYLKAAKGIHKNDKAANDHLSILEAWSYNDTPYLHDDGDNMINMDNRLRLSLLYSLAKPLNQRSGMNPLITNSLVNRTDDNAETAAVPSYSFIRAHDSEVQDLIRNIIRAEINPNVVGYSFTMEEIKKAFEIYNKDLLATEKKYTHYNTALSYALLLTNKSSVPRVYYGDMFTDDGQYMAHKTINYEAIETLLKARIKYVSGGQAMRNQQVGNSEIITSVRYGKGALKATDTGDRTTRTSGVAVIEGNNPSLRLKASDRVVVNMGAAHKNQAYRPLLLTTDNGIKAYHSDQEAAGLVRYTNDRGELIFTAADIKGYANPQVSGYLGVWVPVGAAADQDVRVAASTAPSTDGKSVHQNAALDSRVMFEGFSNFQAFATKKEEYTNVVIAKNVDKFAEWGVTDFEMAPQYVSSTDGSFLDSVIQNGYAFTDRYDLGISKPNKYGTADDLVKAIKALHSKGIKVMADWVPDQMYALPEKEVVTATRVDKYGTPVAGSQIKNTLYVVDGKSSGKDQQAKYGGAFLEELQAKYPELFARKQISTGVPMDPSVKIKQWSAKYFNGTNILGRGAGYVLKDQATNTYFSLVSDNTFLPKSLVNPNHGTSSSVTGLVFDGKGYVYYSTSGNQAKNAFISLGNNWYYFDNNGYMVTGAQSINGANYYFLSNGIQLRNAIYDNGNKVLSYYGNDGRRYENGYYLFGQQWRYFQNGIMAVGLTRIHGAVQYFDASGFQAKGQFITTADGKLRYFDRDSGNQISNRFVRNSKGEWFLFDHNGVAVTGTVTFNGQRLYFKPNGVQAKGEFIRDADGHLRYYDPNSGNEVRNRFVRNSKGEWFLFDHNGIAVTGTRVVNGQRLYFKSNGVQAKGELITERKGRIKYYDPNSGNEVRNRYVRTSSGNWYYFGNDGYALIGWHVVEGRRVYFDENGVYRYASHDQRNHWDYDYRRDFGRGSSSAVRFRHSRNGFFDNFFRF

Take `COc1c(O)cc2oc3cc(O)c(CC=C(C)C)c(O)c3c(=O)c2c1CC=C(C)C` [αMG, α-mangostin]: the inhibition at 150 µM on GtfB and on GtfC was over 70% each time.
